Measured values: paper PMC7484342 (Journal of molecular biology, 2020)

Key:
hVKORL = target: T1, hVKORL (Homo sapiens, UniProt Q8N0U8); assay: Cell-based activity assay
T1 sequence (Q8N0U8 1-176): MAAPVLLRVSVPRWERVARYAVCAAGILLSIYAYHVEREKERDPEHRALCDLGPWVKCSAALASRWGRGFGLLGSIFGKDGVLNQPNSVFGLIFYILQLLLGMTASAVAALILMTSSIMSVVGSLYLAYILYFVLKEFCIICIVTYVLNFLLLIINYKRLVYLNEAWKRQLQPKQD

purified TrVKORL = target: T2, purified TrVKORL (Takifugu rubripes, UniProt Q6TEK8); assay: Fluorometric activity assay of purified TrVKORL; format: biochemical
T2 sequence (Q6TEK8 1-175): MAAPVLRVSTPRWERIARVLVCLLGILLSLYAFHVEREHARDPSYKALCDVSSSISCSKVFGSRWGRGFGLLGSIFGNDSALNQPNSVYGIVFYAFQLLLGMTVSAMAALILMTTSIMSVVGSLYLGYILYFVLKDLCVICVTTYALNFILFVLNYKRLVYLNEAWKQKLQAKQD

purified hVKORL = target: T3, purified hVKORL (Homo sapiens, UniProt Q8N0U8); assay: Fluorometric activity assay of purified hVKORL; format: biochemical; conditions: IC50, purified and analyzed in LMNG, GSH, 250 nM enzyme, KO as substrate
T3 sequence (Q8N0U8 1-176): T1 sequence (Q8N0U8 1-176)

[1] = target: purified complex of hVKOR and warfarin (Homo sapiens, UniProt Q9BQB6); conditions: DTT as reductant
purified complex of hVKOR and warfarin, sequence (Q9BQB6 whole entry, one chain of several): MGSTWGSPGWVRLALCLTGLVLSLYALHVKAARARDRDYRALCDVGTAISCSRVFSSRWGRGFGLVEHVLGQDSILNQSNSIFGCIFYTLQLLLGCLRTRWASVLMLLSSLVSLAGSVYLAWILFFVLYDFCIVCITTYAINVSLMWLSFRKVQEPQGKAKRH

[2] = target: T4, Takifugu rubripes VKOR-like (TrVKORL) (Takifugu rubripes, UniProt Q6TEK8); assay: Cell-based activity assay
T4 sequence (Q6TEK8 1-175): T2 sequence (Q6TEK8 1-175)

Structure (SMILES) | IC50 (hVKORL) | IC50 (purified TrVKORL; IC50 of warfarin, in presence of GSH, enzyme concentration 500 nM, KO or K) | Ki (purified TrVKORL; Ki^app estimated from the Morrison equation, GSH, K as substrate, low enzyme concentration) | IC50 (purified TrVKORL; apparent IC50, GSH as reductant, 500 nM TrVKORL, K as substrate) | IC50 (purified TrVKORL; apparent IC50, GSH as reductant, 500 nM TrVKORL, KO as substrate) | IC50 (purified TrVKORL; warfarin IC50, DTT as reductant, 500 nM enzyme, K as substrate) | IC50 (purified TrVKORL; warfarin IC50, DTT as reductant, 500 nM enzyme, KO as substrate) | IC50 (purified hVKORL) | warfarin inhibition (in words) [1] | IC50 [2] | decrease of KM with GSH reduction compared to DTT reduction (purified TrVKORL; TrVKORL, KO as substrate)
CC(=O)CC(c1ccccc1)c1c(O)c2ccccc2oc1=O (centres unmarked) [warfarin] | 238 nM | 250 to 260 nM | 29 nM | ~250 nM | ~260 nM | 3800 nM | 4700 nM | 120 nM | poorly inhibited | 97 nM | –
CC(=CCC12OC1(C)C(=O)c1ccccc1C2=O)CCCC(C)CCCC(C)CCCC(C)C (centres unmarked) [KO, vitamin K epoxide] | – | – | – | – | – | – | – | – | – | – | 3.4 fold
